For twelve compounds, TGI and GI50 results are on record in PubChem BioAssay (NCI).

Among the test systems are OVCAR-8 ovarian; IGROV1 ovarian; SF-295 CNS; HOP-62 NSCLC; RPMI-8226 leukemia; OVCAR-4 ovarian; HCT-116 colon; SK-MEL-5 melanoma; NCI/ADR-RES ovarian; RXF 393 renal; MDA-N.
Experiment in all cases: NCI tumour cell line growth inhibition, 48 h

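1) Cells in 96-well plates. 2) Compound, 48 h, 5 concentrations. 3) Linear interpolation between surrounding doses. 4) Unreached endpoint = highest concentration. GI50 is the concentration that inhibits growth by half. At the TGI there is no net growth.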 Where a SMILES comes first, the peptide text is derived from it.

For the compound `Cc1ccccc1NC(=O)CC(=O)N1N=C(N2c3ccccc3Sc3ccccc32)CC1c1ccccc1` (centres undefined), the TGI in the experiment with OVCAR-8 ovarian, in the experiment on IGROV1 ovarian, in the experiment with SF-295 CNS, with HOP-62 NSCLC, in the experiment with RPMI-8226 leukemia and with OVCAR-4 ovarian was greater than 100 µM throughout. The TGI in the experiment on HCT-116 colon and with SK-MEL-5 melanoma was greater than 100 µM each time.

As to `C/C(N=Nc1nc2ccccc2[nH]1)=C1/C=CC=CN1O`, the TGI in the experiment on OVCAR-8 ovarian, in the experiment on NCI/ADR-RES ovarian, in the experiment with IGROV1 ovarian, in the experiment with SF-295 CNS, in the experiment with HOP-62 NSCLC and in the experiment with RXF 393 renal was greater than 100 µM throughout. Besides, the TGI in the experiment with RPMI-8226 leukemia, with OVCAR-4 ovarian, with HCT-116 colon, with SK-MEL-5 melanoma and in the experiment on MDA-N was greater than 100 µM in each case.

Consider `CSCCC(NC(=O)OCc1ccccc1)P(=O)(O)c1ccccc1` (centres undefined), for which the TGI in the experiment with OVCAR-8 ovarian, in the experiment with NCI/ADR-RES ovarian, with IGROV1 ovarian, with SF-295 CNS, in the experiment on HOP-62 NSCLC and in the experiment on RPMI-8226 leukemia was greater than 100 µM in each case. Besides, the TGI with OVCAR-4 ovarian, in the experiment on HCT-116 colon, with SK-MEL-5 melanoma and in the experiment with MDA-N was greater than 100 µM in each case.

On to `CCC(C)C(NC(=O)C1CCCN1C(=O)C(CC(C)C)NC(=O)C(CC(C)C)NC(=O)C(N)CC(C)C)C(=O)NC(C(=O)NCC(=O)NC(CC(N)=O)C(=O)NC(CC(C)C)C(=O)NC(CC(C)C)C(=O)NC(CC(C)C)C(N)=O)C(C)C` (centres undefined) (H-LLLPIVGNLLL-NH2; configuration not given here), for which the TGI in the experiment on OVCAR-8 ovarian, in the experiment with NCI/ADR-RES ovarian, in the experiment with IGROV1 ovarian, in the experiment on SF-295 CNS, in the experiment with HOP-62 NSCLC and in the experiment with RPMI-8226 leukemia was greater than 50 µM in each case. The TGI with OVCAR-4 ovarian, in the experiment on HCT-116 colon, with SK-MEL-5 melanoma and in the experiment with MDA-N was greater than 50 µM each time.

Turning to `Cc1cnoc1NS(=O)(=O)c1ccc(Nc2nnc(/C=C/c3c(O)ccc4ccccc34)c(=O)n2N)cc1`, the TGI was greater than 100 µM in the experiment with OVCAR-8 ovarian; 66.9 µM in the experiment on NCI/ADR-RES ovarian; greater than 100 µM with IGROV1 ovarian; greater than 100 µM in the experiment on SF-295 CNS; greater than 100 µM with HOP-62 NSCLC; 80.2 µM in the experiment on RXF 393 renal. Also, the TGI in the experiment on RPMI-8226 leukemia was 71.6 µM; in the experiment with OVCAR-4 ovarian, greater than 100 µM; in the experiment on HCT-116 colon, 55.9 µM; in the experiment on MDA-N it was 82.2 µM.

Take `COc1ccc(C(=O)N(C(=O)N2CCN(c3ccccc3)CC2)S(=O)(=O)c2ccccc2)cc1`: the TGI in the experiment with OVCAR-8 ovarian is 53.5 µM; in the experiment on NCI/ADR-RES ovarian it was 66.7 µM; in the experiment with SF-295 CNS, greater than 100 µM; in the experiment on HOP-62 NSCLC, greater than 100 µM; in the experiment with OVCAR-4 ovarian, greater than 100 µM; in the experiment on HCT-116 colon it was 42.1 µM. For the same compound, the TGI with SK-MEL-5 melanoma was determined as 28 µM; in the experiment on MDA-N, 65.4 µM.

Turning to `CCCN1C(=O)CSC1=Nc1ccc2cc3ccc(N=C4SCC(=O)N4CCC)cc3nc2c1`, the GI50 in the experiment with OVCAR-8 ovarian was 50.7 µM; with NCI/ADR-RES ovarian it was 63.1 µM; in the experiment with SF-295 CNS, 30 µM; in the experiment on RXF 393 renal, 75.8 µM; with RPMI-8226 leukemia, 7.4 µM; in the experiment on OVCAR-4 ovarian, 45.8 µM. The GI50 in the experiment with HCT-116 colon was 14.3 µM; in the experiment with SK-MEL-5 melanoma, 49 µM. The TGI in the experiment with OVCAR-8 ovarian, in the experiment on NCI/ADR-RES ovarian, with SF-295 CNS, in the experiment on RXF 393 renal, in the experiment with RPMI-8226 leukemia and in the experiment with OVCAR-4 ovarian was greater than 100 µM each time. For the same compound, the TGI was 34.8 µM with HCT-116 colon and greater than 100 µM in the experiment with SK-MEL-5 melanoma.

In the case of `CC(C)C1OC(=O)/C=C/C=C/C=C/C=C/C=C/CC(O)C(C)C(O)CC(O)CC(O)CC(O)CC(O)CC(O)CC(O)/C=C/C1C` (centres undefined), the TGI in the experiment on OVCAR-8 ovarian, in the experiment with NCI/ADR-RES ovarian, in the experiment with IGROV1 ovarian, in the experiment with SF-295 CNS, in the experiment on HOP-62 NSCLC and in the experiment with RPMI-8226 leukemia was greater than 100 µM each time. The compound also showed a TGI in the experiment on OVCAR-4 ovarian greater than 100 µM.

Regarding `O=C1/C(=C\c2ccc(F)cc2)CCOc2c1ccc1ccccc21`, the TGI was 35.2 µM in the experiment on OVCAR-8 ovarian; 45.9 µM in the experiment on NCI/ADR-RES ovarian; greater than 100 µM with IGROV1 ovarian; 70.3 µM in the experiment with SF-295 CNS; 63.8 µM in the experiment on HOP-62 NSCLC; 49.7 µM with RXF 393 renal. The TGI is 9.45 µM in the experiment on RPMI-8226 leukemia, greater than 100 µM in the experiment with OVCAR-4 ovarian, 10.7 µM in the experiment with HCT-116 colon and 47.9 µM with SK-MEL-5 melanoma. The GI50 in the experiment with IGROV1 ovarian is greater than 100 µM.

Turning to `COC(=S)OC1CC(n2cnc3c(N)ncnc32)OC1CO[Si](C)(C)C(C)(C)C` (centres undefined), the TGI in the experiment with OVCAR-8 ovarian was 69.5 µM; in the experiment on NCI/ADR-RES ovarian, 82.6 µM; with IGROV1 ovarian it was 43.8 µM; in the experiment on SF-295 CNS, 34.6 µM; with HOP-62 NSCLC, 32.8 µM; in the experiment on RXF 393 renal, 25.9 µM. For the same compound, the TGI in the experiment with RPMI-8226 leukemia was greater than 100 µM; in the experiment with OVCAR-4 ovarian, 44 µM; in the experiment on HCT-116 colon, 31.3 µM; with MDA-N, 46.7 µM.

As to `CC(=O)Oc1ccc(CO)cc1OC(C)=O`, the TGI in the experiment with OVCAR-8 ovarian, in the experiment on SF-295 CNS, in the experiment with HOP-62 NSCLC, in the experiment on RXF 393 renal, in the experiment on RPMI-8226 leukemia and in the experiment on OVCAR-4 ovarian was greater than 100 µM in each case. Further, the TGI in the experiment with HCT-116 colon and in the experiment on SK-MEL-5 melanoma was greater than 100 µM in each case.

Turning to `COc1cc2c(cc1C)NC(=O)/C2=C/c1c(Cl)n(-c2ccccc2)c2ccccc12`, the TGI in the experiment with OVCAR-8 ovarian is greater than 100 µM; with NCI/ADR-RES ovarian it was 67.7 µM; with IGROV1 ovarian, greater than 100 µM; with SF-295 CNS, 49 µM; in the experiment with HOP-62 NSCLC, 63.7 µM; in the experiment on RXF 393 renal it was 38.5 µM. In addition, the TGI in the experiment on RPMI-8226 leukemia is 52.8 µM; with HCT-116 colon, 61.1 µM; in the experiment on SK-MEL-5 melanoma, 22.3 µM; in the experiment on MDA-N, 37 µM.
